Assay: Low irritation properties: 24 hours airtight application with Finn Chamber (panel)
Format: in vivo, human
Settings: 0.01 g airtight in Finn Chamber 24 hours, skin observed 1 hour after removal
Experimental: Moreover, the low irritation properties of the respective cosmetic preparation compositions as an ink remover ingredient were evaluated in the following manner. The insides of the arms of seven panelists were washed with soap and water, and in addition, the washed surfaces were wiped with ethanol and naturally dried. Next, each of the thus washed surfaces was evenly divided into seven equal areas, to which 0.01 g of the respective cosmetic preparation compositions of Examples 13 and 13A to 13D, and Comparative Examples 8 and 9, was applied airtightly by using Finn Chamber (a product of Epitest Ltd Oy). After 24 hours, the Finn Chamber and the cosmetic preparation compositions were taken off. After 1 hour, the condition of the skin was observed. The low irritation properties of the respective cosmetic preparation compositions as an ink remover ingredient were evaluated in accordance with the following criteria. <Evaluation Criteria of Low Irritation Properties> Good: No change was found in the skin of the airtightly applied part. Moderate: A slight rash was found in the skin of the airtightly applied part.

Compound | Condition of the skin of the airtightly applied part
CC(C)CCCCCCOC(=O)CCCCCC(C)C [Comparative Example 8, isononyl isononanoate, reference compound] | a notable rash was found

Same assay, conditions: 0.01 g airtight in Finn Chamber 24 hours, skin observed 1 hour after removal; seven panelists

Compound | Low irritation properties
CC(C)CCCCCCOC(=O)CCCCCC(C)C [Comparative Example 8, isononyl isononanoate, reference compound] | Poor
CCCCCCCC(=O)OCCCOC(=O)CCCCCCC [Example 13A, PDO-di-n-Octanoic Acid Ester] | Moderate
PDO-C8/C10 diester [Example 13] | Good
PDO-C8/C10=25:75 diester [Example 13C] | Good
PDO-C8/C10=50:50 diester [Example 13B] | Good

Same assay, conditions: in vivo

Compound | Low irritation properties
CCCCCCCCCC(=O)OCCCOC(=O)CCCCCCCCC [Example 13D, PDO-di-n-decanoic acid ester] | Good

Assay: Friction coefficient on artificial leather (friction tester)
Format: physicochemical
Settings: 5 μL on artificial leather, pressure of 100 g
Experimental: (§1) Next, the viscosity and the friction coefficient of the cosmetic preparation compositions of Example 12 and Comparative Examples 4 to 7 and 4A to 4C were measured.
The friction coefficient was measured by such a way that: 5 μL of each cosmetic preparation composition was applied to the surface of an artificial leather (Product Name: Supplale, a product of Idemitsu Technofine Co., Ltd.), and the applied surface was measured for the friction coefficient and the change in the value of the friction coefficient, by using a friction tester (Type: TL201Ts, a product of Trinity-Lab Co., Ltd.) with a pressure of 100 g.

Changed value of friction coefficient | Friction coefficient | Compound
0.0080 | 0.170 | CC(CCC(C(=O)OCCCOC(=O)C(CCC(C)CC(C)(C)C)C(C)CC(C)(C)C)C(C)CC(C)(C)C)CC(C)(C)C (centres unmarked) [Comparative Example 4B]
0.0062 | 0.155 | CC(C)CCCC(C)CCCC(C)CCCCC(C)CCCC(C)CCCC(C)C (centres unmarked) [Comparative Example 5, squalane]
0.0056 | 0.147 | PDO-Garbett isostearic acid diester [Comparative Example 4C]

Compound | Changed value of friction coefficient | Friction coefficient
PDO diisostearate [Example 12] | 0.0045 | 0.140

Assay: Moisturizing properties of cosmetic preparation compositions (massage oil, panel)
Format: in vivo, human
Design: key: Good: Very soft and moistened touch was felt.; Moderate: Soft and moistened touch was felt.; Poor: No moistened touch was felt
Settings: neat cosmetic preparation composition (massage oil); 0.05 g, rubbed twenty times, wiped; seven panelists
Experimental: In Example 12, the PDO diisostearate obtained from Synthesis Example 1 was used as a cosmetic preparation composition (moisturizing ingredient) for a moisturizing cosmetic preparation (massage oil), and the moisturizing properties and the feeling of use thereof were evaluated.
The insides of the arms of seven panelists were washed with soap and water, and in addition, the washed surfaces were wiped with ethanol and naturally dried. Thereafter, each of the thus washed surfaces was evenly divided into eight equal areas, to which 0.05 g of the respective cosmetic preparation compositions of Example 12, and Comparative Examples 4 to 7 and 4A to 4C, was applied and massage was done by gently rubbing with a finger twenty times. Thereafter, the area was wiped with a dry cloth. On completion of this wiping, the moisturizing properties and the feeling of use of the respective cosmetic preparation compositions were evaluated in accordance with the same criteria as those of the moisturizing gels of Examples 6 to 8 mentioned above.

Compound | Moisturizing properties
CCCCCCCCCCCCCCCCCC(=O)OCCCOC(=O)CCCCCCCCCCCCCCCCC [Comparative Example 4A, PDO distearate] | Moderate
CC(CCC(C(=O)OCCCOC(=O)C(CCC(C)CC(C)(C)C)C(C)CC(C)(C)C)C(C)CC(C)(C)C)CC(C)(C)C (centres unmarked) [Comparative Example 4B] | Good
CC(C)CCCC(C)CCCC(C)CCCCC(C)CCCC(C)CCCC(C)C (centres unmarked) [Comparative Example 5, squalane] | Good
PDO diisostearate [Example 12] | Good
PDO-Garbett isostearic acid diester [Comparative Example 4C] | Poor

Assay: Oxidative stability by conductometric determination method (CDM, Rancimat)
Format: physicochemical
Settings: 3 g, 120° C., air flow 8 L/h; after 5 hours
Experimental: Furthermore, the oxidative stability was compared between the cosmetic preparation compositions of Example 12 and Comparative Example 4. Specifically speaking, these cosmetic preparation compositions were evaluated for the oxidative stability by a conductometric determination method (CDM method). […] A greater increase in the conductivity per unit time means a lower oxidative stability of the cosmetic preparation composition. Conversely, a smaller increase in the conductivity per unit time means a higher oxidative stability of the cosmetic preparation composition. The conductivity was measured by using a rancimat instrument (Type: Rancimat 743, a product of Metrohm-Sibata Ltd.) in a condition where 3 g of the sample was examined under heating at 120° C. with an air flow rate of 8 L/h.

Compound | Conductivity (CDM method) after 5 hours
PDO diisostearate [Example 12] | 17 μS/cm

Same assay, conditions: 3 g, 120° C., air flow 8 L/h; after 10 hours

Compound | Conductivity (CDM method) after 10 hours
PDO diisostearate [Example 12] | 45 μS/cm

Same assay, conditions: 3 g, 120° C., air flow 8 L/h; after 15 hours

Compound | Conductivity (CDM method) after 15 hours
PDO diisostearate [Example 12] | 83 μS/cm

Same assay, conditions: 3 g, 120° C., air flow 8 L/h; after 20 hours

Compound | Conductivity (CDM method) after 20 hours
PDO diisostearate [Example 12] | 127 μS/cm

Assay: Cleansing properties of industrial use cleansers: oil paint pen ink on coated steel panel
Settings: industrial use cleanser; black oil paint pen line on coated steel panel, rubbed thirty times at about 200 g
Experimental: The cleansing properties of the respective industrial use cleansers as an agent to remove an oil soluble colorant from a coated steel panel were evaluated in the following manner.
First, an electro-galvanized steel panel was coated with commercially available automotive paints, namely, a primer surfacer (Product Name: Primer White (a product of Musashi Holt Co., Ltd.)), a white automotive paint (Product Name: Antirust Paint (Color No. 041) (a product of Musashi Holt Co., Ltd.)), and a clear paint (Product Name: Topcoat Clear (a product of Musashi Holt Co., Ltd.)), by spraying according to the usage instruction of each product, and dried at 25° C. for 24 hours. By so doing, a coated steel panel for the test was obtained.
Next, using a black oil paint pen (Product Name: Mckee Care, a product of Zebra Co., Ltd.), a line was painted on the surface of the coated steel panel, and dried at 25° C. for 24 hours.
Subsequently, the painted line was evenly divided into seven equal areas. Each area was rubbed with an absorbent cotton that had been impregnated with, but to a degree which would not allow a leakage of, the industrial use cleanser of Examples 14, 14A, and 14B, or the oil agent of Comparative Examples 10, 11, 11A, and 11B, while loading a pressure of about 200 g in a reciprocating manner thirty times. From the proportion of the ink of the line painted with the oil paint pen which had been able to be removed by this removal operation, the cleansing properties of the respective industrial use cleansers of Examples 14, 14A, and 14B, or the respective oil agents of Comparative Examples 10, 11, 11A, and 11B, as the agent to remove the oil soluble colorant, were evaluated by eye in accordance with the following criteria.
<Evaluation Criteria of Cleansing Properties>
Excellent: High cleansing properties, meaning that a proportion of 75 to 100% in the line painted with the oil paint pen on the coated steel panel was able to be removed.
Good: Relatively high cleansing properties, meaning that a proportion of 50 to 75% in the line painted with the oil paint pen on the coated steel panel was able to be removed.
Moderate: Some cleansing properties, meaning that only a proportion of 25 to 50% in the line painted with the oil paint pen on the coated steel panel was able to be removed.
Poor: Weak cleansing properties, meaning that only a proportion of 0 to 25% in the line painted with the oil paint pen on the coated steel panel was able to be removed.
The cleansing properties and the low corrosion properties of the respective industrial use cleansers as an agent to remove an oil soluble colorant for a coated steel panel were evaluated in the same manner as those of the industrial use cleanser in Example 14. […]

Compound | Cleansing properties
CCO [Comparative Example 10, ethanol, reference compound] | Excellent (High cleansing properties, meaning that a proportion of 75 to 100% in the line painted with the oil paint pen on the coated steel panel was able to be removed.)
CCCCCCCC(=O)OCCCOC(=O)CCCCCCC [Example 13A, PDO-di-n-Octanoic Acid Ester] | Excellent (High cleansing properties, meaning that a proportion of 75 to 100% in the line painted with the oil paint pen on the coated steel panel was able to be removed.)
CCCCCCCCCC(=O)OCCCOC(=O)CCCCCCCCC [Example 13D, PDO-di-n-decanoic acid ester] | Poor (Weak cleansing properties, meaning that only a proportion of 0 to 25% in the line painted with the oil paint pen on the coated steel panel was able to be removed.)
PDO-C8/C10 diester [Example 13] | Excellent (High cleansing properties, meaning that a proportion of 75 to 100% in the line painted with the oil paint pen on the coated steel panel was able to be removed.)
PDO-C8/C10=25:75 diester [Example 13C] | Moderate (Some cleansing properties, meaning that only a proportion of 25 to 50% in the line painted with the oil paint pen on the coated steel panel was able to be removed.)
PDO-C8/C10=50:50 diester [Example 13B] | Good (Relatively high cleansing properties, meaning that a proportion of 50 to 75% in the line painted with the oil paint pen on the coated steel panel was able to be removed.)

Assay: Cleansing properties: removal of ink of an oil paint pen from the skin (panel)
Format: in vivo, human
Settings: black oil paint pen line on inside of arm, rubbed thirty times at about 200 g; seven panelists
Experimental: In Example 13, the cleansing properties and the low irritation properties of the PDO-C8/C10 diester obtained from Synthesis Example 2 as a cosmetic preparation composition for a cosmetic preparation to be used for the purpose of removing an ink of an oil paint pen (ink remover ingredient) from the skin, were evaluated. The insides of the arms of seven panelists were washed with soap and water, and in addition, the washed surfaces were wiped with ethanol and naturally dried. Thereafter, using a black oil paint pen (Product Name: […] product of Zebra Co., Ltd.), a line was painted respectively on the washed surfaces of the insides of their arms. Next, the painted line was evenly divided into seven equal areas. […] From the proportion of the line painted with the oil paint pen which had been able to be removed by this removal operation, the cleansing properties of the respective cosmetic preparation compositions as an ink remover ingredient were evaluated in accordance with the following criteria. The results of their averages are shown in Table 14. <Evaluation Criteria of Cleansing Properties> Excellent: High cleansing properties, meaning that a proportion of 75 to 100% in the line painted with the oil paint pen was able to be removed. Good: Relatively high cleansing properties, meaning that a proportion of 50 to 75% in the line painted with the oil paint pen was able to be removed. Moderate: Some cleansing properties, meaning that only a proportion of 25 to 50% in the line painted with the oil paint pen was able to be removed. Poor: Weak cleansing properties, meaning that only a proportion of 0 to 25% in the line painted with the oil paint pen was able to be removed.

Compound | Cleansing properties
CC(C)CCCCCCOC(=O)CCCCCC(C)C [Comparative Example 8, isononyl isononanoate, reference compound] | Good (Relatively high cleansing properties, meaning that a proportion of 50 to 75% in the line painted with the oil paint pen was able to be removed.)
CCCCCCCC(=O)OCCCOC(=O)CCCCCCC [Example 13A, PDO-di-n-Octanoic Acid Ester] | Excellent (High cleansing properties, meaning that a proportion of 75 to 100% in the line painted with the oil paint pen was able to be removed.)
CCCCCCCCCC(=O)OCCCOC(=O)CCCCCCCCC [Example 13D, PDO-di-n-decanoic acid ester] | Poor (Weak cleansing properties, meaning that only a proportion of 0 to 25% in the line painted with the oil paint pen was able to be removed.)
PDO-C8/C10 diester [Example 13] | Excellent (High cleansing properties, meaning that a proportion of 75 to 100% in the line painted with the oil paint pen was able to be removed.)
PDO-C8/C10=25:75 diester [Example 13C] | Moderate (Some cleansing properties, meaning that only a proportion of 25 to 50% in the line painted with the oil paint pen was able to be removed.)
PDO-C8/C10=50:50 diester [Example 13B] | Good (Relatively high cleansing properties, meaning that a proportion of 50 to 75% in the line painted with the oil paint pen was able to be removed.)

Assay: Viscosity by stress-controlled rheometer at 20° C.
Format: physicochemical
Settings: not given
Experimental: as §1
The viscosity was measured by using a stress-controlled rheometer (Product No. RheoStress RS1, with a C60/2 Ti sensor, a product of Haake Company) at 20° C.

Viscosity (mPa · s) (20° C.) | Compound
Not measurable | CCCCCCCCCCCCCCCCCC(=O)OCCCOC(=O)CCCCCCCCCCCCCCCCC [Comparative Example 4A, PDO distearate]
1003 mPa · s | CC(CCC(C(=O)OCCCOC(=O)C(CCC(C)CC(C)(C)C)C(C)CC(C)(C)C)C(C)CC(C)(C)C)CC(C)(C)C (centres unmarked) [Comparative Example 4B]
36.0 mPa · s | CC(C)CCCC(C)CCCC(C)CCCCC(C)CCCC(C)CCCC(C)C (centres unmarked) [Comparative Example 5, squalane]
57.5 mPa · s | PDO-Garbett isostearic acid diester [Comparative Example 4C]

Compound | Viscosity (mPa · s) (20° C.)
PDO diisostearate [Example 12] | 80.0 mPa · s

Source: patent US20110306665A1, “COSMETIC PREPARATION, METHOD FOR PRODUCING SAME, COMPOSITION FOR COSMETIC PREPARATIONS, COSMETIC PREPARATION CONTAINING THE COMPOSITION FOR COSMETIC PREPARATIONS AND METHOD FOR PRODUCING SAME, AND CLEANSER FOR INDUSTRIAL USE” (The Nisshin OilliO Group, Ltd., priority 2009, published 2011)
